Measured values as given in the NIST ThermoML archive (doi:10.1016/j.fluid.2015.12.007).
Numbers after ± are expanded uncertainties.

Assay: xn = mol fraction of the nth substance listed
Details: 101 kPa, Liquid; for speed of sound: Sing-around technique in a fixed-path interferometer; for mass density: Vibrating tube method

CCCCn1cc[n+](C)c1.COS(=O)(=O)[O-] [1-butyl-3-methylimidazolium methyl sulfate] + CC(O)CO
Details	mass density [kg/m3]	speed of sound [m/s]
293.15 K, x1 = 0.0574	1061.11 ± 0.17	1541.9 ± 1.4
293.15 K, x1 = 0.1155	1081.09 ± 0.22	1554.6 ± 1.4
293.15 K, x1 = 0.2102	1107.07 ± 0.33	1573.6 ± 1.6
293.15 K, x1 = 0.3133	1130.01 ± 0.5	1591.4 ± 1.8
293.15 K, x1 = 0.4151	1148.5 ± 0.72	1602.8 ± 2
293.15 K, x1 = 0.5038	1162.16 ± 0.94	1613.5 ± 2.1
293.15 K, x1 = 0.6026	1174.98 ± 1.2	1626 ± 2.4
293.15 K, x1 = 0.6996	1185.85 ± 1.5	1636.8 ± 2.6
293.15 K, x1 = 0.8095	1196.11 ± 2	1649.4 ± 2.8
293.15 K, x1 = 0.9003	1204.12 ± 2.4	1660.2 ± 3
298.15 K, x1 = 0.0574	1057.45 ± 0.17	1528.2 ± 1.4
298.15 K, x1 = 0.1155	1077.45 ± 0.21	1541.1 ± 1.4
298.15 K, x1 = 0.2102	1103.5 ± 0.33	1560.2 ± 1.6
298.15 K, x1 = 0.3133	1126.47 ± 0.5	1578.4 ± 1.8
298.15 K, x1 = 0.4151	1145.03 ± 0.71	1589.9 ± 2
298.15 K, x1 = 0.5038	1158.71 ± 0.93	1600.8 ± 2.1
298.15 K, x1 = 0.6026	1171.59 ± 1.2	1613.1 ± 2.4
298.15 K, x1 = 0.6996	1182.44 ± 1.5	1624.2 ± 2.6
298.15 K, x1 = 0.8095	1192.74 ± 2	1636.8 ± 2.8
298.15 K, x1 = 0.9003	1200.82 ± 2.3	1647.5 ± 3
303.15 K, x1 = 0.0574	1053.78 ± 0.17	1514.5 ± 1.4
303.15 K, x1 = 0.1155	1073.81 ± 0.21	1527.5 ± 1.4
303.15 K, x1 = 0.2102	1099.9 ± 0.33	1546.9 ± 1.6
303.15 K, x1 = 0.3133	1122.94 ± 0.5	1565.2 ± 1.8
303.15 K, x1 = 0.4151	1141.57 ± 0.71	1577.1 ± 2
303.15 K, x1 = 0.5038	1155.27 ± 0.92	1588.2 ± 2.1
303.15 K, x1 = 0.6026	1168.22 ± 1.2	1600.5 ± 2.4
303.15 K, x1 = 0.6996	1179.05 ± 1.5	1611.8 ± 2.6
303.15 K, x1 = 0.8095	1189.38 ± 1.9	1624.5 ± 2.8
303.15 K, x1 = 0.9003	1197.47 ± 2.3	1635 ± 3
308.15 K, x1 = 0.0574	1050.08 ± 0.16	1500.8 ± 1.4
308.15 K, x1 = 0.1155	1070.14 ± 0.21	1513.9 ± 1.4
308.15 K, x1 = 0.2102	1096.3 ± 0.32	1533.6 ± 1.6
308.15 K, x1 = 0.3133	1119.41 ± 0.49	1552.2 ± 1.8
308.15 K, x1 = 0.4151	1138.1 ± 0.7	1564.4 ± 2
308.15 K, x1 = 0.5038	1151.85 ± 0.92	1575.8 ± 2.1
308.15 K, x1 = 0.6026	1164.85 ± 1.2	1588.2 ± 2.4
308.15 K, x1 = 0.6996	1175.66 ± 1.5	1599.6 ± 2.6
308.15 K, x1 = 0.8095	1186.03 ± 1.9	1612.3 ± 2.8
308.15 K, x1 = 0.9003	1194.14 ± 2.3	1622.9 ± 3
313.15 K, x1 = 0.0574	1046.36 ± 0.16	1487.1 ± 1.4
313.15 K, x1 = 0.1155	1066.46 ± 0.21	1500.4 ± 1.4
313.15 K, x1 = 0.2102	1092.68 ± 0.32	1520.3 ± 1.6
313.15 K, x1 = 0.3133	1115.88 ± 0.49	1539.2 ± 1.8
313.15 K, x1 = 0.4151	1134.64 ± 0.7	1551.8 ± 2
313.15 K, x1 = 0.5038	1148.44 ± 0.91	1563.4 ± 2.1
313.15 K, x1 = 0.6026	1161.48 ± 1.2	1576 ± 2.4
313.15 K, x1 = 0.6996	1172.29 ± 1.5	1587.6 ± 2.6
313.15 K, x1 = 0.8095	1182.71 ± 1.9	1600.3 ± 2.8
313.15 K, x1 = 0.9003	1190.84 ± 2.3	1610.9 ± 3
318.15 K, x1 = 0.0574	1042.62 ± 0.16	1473.6 ± 1.4
318.15 K, x1 = 0.1155	1062.78 ± 0.21	1487.1 ± 1.4
318.15 K, x1 = 0.2102	1089.06 ± 0.32	1507.4 ± 1.6
318.15 K, x1 = 0.3133	1112.34 ± 0.48	1526.4 ± 1.8
318.15 K, x1 = 0.4151	1131.18 ± 0.69	1539.2 ± 2
318.15 K, x1 = 0.5038	1145.05 ± 0.91	1551.5 ± 2.1
318.15 K, x1 = 0.6026	1158.11 ± 1.2	1563.8 ± 2.4
318.15 K, x1 = 0.6996	1168.92 ± 1.5	1576 ± 2.6
318.15 K, x1 = 0.8095	1179.39 ± 1.9	1588.5 ± 2.8
318.15 K, x1 = 0.9003	1187.56 ± 2.3	1599 ± 3
